Experimental data published in patent publication US6362208B1, “Anilide compounds and drugs containing the same” (Kowa Company, Ltd., priority 1997, dated 2002).

Assays:
ACAT in J774 cells = target: T1, ACAT in J774 cells (Mus musculus, UniProt Q61263); assay: ACAT inhibitory action (anti-foaming action) in J774 cells, cholesterol ester formation; format: cell-based; conditions: for IC50: J774 cells, 10 μg/ml 25-OH cholesterol, 18-hr culturing, cholesterol ester per protein, read-out: IC50 (μM) of J774-derived enzyme; for IC50 (HepG2)/IC50 (J774): ratio HepG2 / J774
T1 construct: J774 cells or HepG2 cells were inoculated on a 24-well plate; endogenous in cells; host or cells: J774 cells
T1 sequence (Q61263 1-540): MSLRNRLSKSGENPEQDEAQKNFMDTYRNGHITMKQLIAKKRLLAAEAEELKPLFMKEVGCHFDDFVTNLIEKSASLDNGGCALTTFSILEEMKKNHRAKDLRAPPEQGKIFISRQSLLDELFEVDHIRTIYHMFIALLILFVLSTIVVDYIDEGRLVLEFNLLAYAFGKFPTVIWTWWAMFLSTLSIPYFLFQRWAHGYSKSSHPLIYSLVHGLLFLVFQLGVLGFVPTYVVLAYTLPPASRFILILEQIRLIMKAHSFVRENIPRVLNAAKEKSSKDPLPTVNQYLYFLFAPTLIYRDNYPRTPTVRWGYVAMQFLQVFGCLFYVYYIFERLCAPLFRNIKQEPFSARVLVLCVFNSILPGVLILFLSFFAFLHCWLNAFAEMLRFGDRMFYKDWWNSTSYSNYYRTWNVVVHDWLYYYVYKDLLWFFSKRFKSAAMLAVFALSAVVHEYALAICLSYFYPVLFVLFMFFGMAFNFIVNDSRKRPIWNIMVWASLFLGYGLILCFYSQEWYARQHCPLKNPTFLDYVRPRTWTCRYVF
Protocol: (§1) J774 cells or HepG2 cells were inoculated on a 24-well plate; J774 cells and HepG2 cells were cultured in DMEM and MEM culture broths (each of the broths containing 10% calf fetus serum), respectively, in a 5% CO2 incubator at 37° C. for 24 hours. […] After discarding the culture media, the resulting cultures were rinsed twice with PBS and extracted with 1.5 ml of hexane:isopropanol (3:2), for concentration and drying. The extracts were dissolved in isopropanol containing 0.2 ml of 10% Triton X-100, to assay total cholesterol (TC) and free cholesterol (FC) by using Cholesterol E Test WAKO (manufactured by Wako Pure Chemicals, Co.) and Free Cholesterol E Test Wako (manufactured by Wako Pure Chemicals, Co.). […] Based on the difference between TC and FC, cholesterol ester was calculated per protein, to determine IC50, compared with the calculated control IC50 value.

ACAT in HepG2 cells = assay: ACAT inhibitory action in HepG2 cells, cholesterol ester formation; format: cell-based; conditions: 10 μg/ml 25-OH cholesterol, 18-hr culturing, cholesterol ester per protein, read-out: IC50 (μM) of HepG2-derived enzyme
Protocol: as §1

## COC(=O)c1cccc2nc(SCCCCCC(=O)Nc3c(C(C)C)cccc3C(C)C)oc12 [Example 46, 6-(7-methoxycarbonylbenzoxazol-2-ylthio)-N-(2,6-diisopropylphenyl)hexanamide]
ACAT in J774 cells
  IC50: 0.098 µM
  IC50 (HepG2)/IC50 (J774): 303.4
ACAT in HepG2 cells
  IC50: 29.8 µM
other
  melting point: 118 to 119 °C

## CC(C)c1cccc(C(C)C)c1NC(=O)CCCCCSc1nc2cccc(C(F)(F)F)c2o1 [Example 74, 6-(7-trifluoromethylbenzoxazol-2-ylthio)-N-(2,6-diisopropylphenyl)hexanamide]
other
  melting point: 130 °C

## CC(C)c1cccc(C(C)C)c1NC(=O)CCCCCSc1nc2ccc(CO)cc2o1 [Example 42, 6-(6-hydroxymethylbenzoxazol-2-ylthio)-N-(2,6-diisopropylphenyl)hexanamide]
other
  melting point: 93 to 95 °C

## CC(C)c1cccc(C(C)C)c1NC(=O)CCCCCSc1nc2cccc(-c3cc[nH]n3)c2o1 [Example 88, 6-[7-(pyrazol-3-yl)benzoxazol-2-ylthio]-N-(2,6-diisopropylphenyl)hexanamide]
ACAT in J774 cells
  IC50: 1.64 µM
  IC50 (HepG2)/IC50 (J774): 6.1
ACAT in HepG2 cells
  IC50: 10 µM
other
  melting point: 174 to 176 °C

## CC(C)c1cccc(C(C)C)c1NC(=O)CCCCCNc1nc2cccnc2o1 [Example 20, 6-(oxazolo[5,4-b]pyridin-2-ylamino)-N-(2,6-diisopropylphenyl)hexanamide]
other
  melting point: 177 to 178 °C

## COC(=O)c1cccc2nc(SCCCCCCCNC(=O)Nc3c(C(C)C)cccc3C(C)C)oc12 [Example 55, N-(2,6-diisopropylphenyl)-N′-[7-(7-methoxycarbonylbenzoxazol-2-ylthio)heptyl]urea]
other
  melting point: 179 to 181 °C

## CC(C)c1cccc(C(C)C)c1NC(=O)CCCCCSc1nc2cnccc2[nH]1 [Example 6, 6-(imidazolo[4,5-c]pyridin-2-ylthio)-N-(2,6-diisopropylphenyl)hexanamide]
ACAT in J774 cells
  IC50: 10 µM
  IC50 (HepG2)/IC50 (J774): 1.0
ACAT in HepG2 cells
  IC50: 10 µM
other
  melting point: 96 to 98 °C

## CC(C)c1cccc(C(C)C)c1NC(=O)CCCCCSc1nc2cccc(CN(C)C)c2o1 [Example 49, 6-[7-(N,N-dimethylaminomethyl)benzoxazol-2-ylthio]-N-(2,6-diisopropylphenyl)hexanamide]
other
  melting point: 102 to 104 °C

## CC(C)c1cccc(C(C)C)c1NC(=O)CCCCCSc1nc2cccc(C(=O)O)c2o1 [Example 47, 6-(7-carboxybenzoxazol-2-ylthio)-N-(2,6-diisopropylphenyl)hexanamide]
other
  melting point: 175 to 177 °C

## COC(=O)c1ccc2nc(SCCCCCC(=O)Nc3c(C(C)C)cccc3C(C)C)oc2c1 [Example 40, 6-(6-methoxycarbonylbenzoxazol-2-ylthio)-N-(2,6-diisopropylphenyl)hexanamide]
other
  melting point: 157 to 158 °C

## COC(=O)c1ccc2oc(SCCCCCC(=O)Nc3c(C(C)C)cccc3C(C)C)nc2c1 [Example 34, 6-(5-methoxycarbonylbenzoxazol-2-ylthio)-N-(2,6-diisopropylphenyl)hexanamide]
ACAT in J774 cells
  IC50: 0.6 µM
  IC50 (HepG2)/IC50 (J774): 13.5
ACAT in HepG2 cells
  IC50: 8.15 µM
other
  melting point: 104 to 106 °C

## COC(=O)c1ccc2nc(SCCCCCC(=O)Nc3c(C(C)C)cccc3C(C)C)[nH]c2c1 [Example 63, 6-(5-methoxycarbonylbenzimidazol-2-ylthio)-N-(2,6-diisopropylphenyl)hexanamide]
other
  melting point: 190 to 192 °C

## CC(C)c1cccc(C(C)C)c1NC(=O)CCCCCSc1nc2ncccc2o1 [Example 1, 6-(oxazolo[4,5-b]pyridin-2-ylthio)-N-(2,6-diisopropylphenyl)hexanamide]
ACAT in J774 cells
  IC50: 1.3 µM
  IC50 (HepG2)/IC50 (J774): 3.2
ACAT in HepG2 cells
  IC50: 4.1 µM
other
  melting point: 94 to 95 °C

## COC(=O)c1ccc2nc(SCCCCCCCCC(=O)Nc3c(C(C)C)cccc3C(C)C)oc2c1 [Example 54, 9-(6-methoxycarbonylbenzoxazol-2-ylthio)-N-(2,6-diisopropylphenyl)nonanamide]
other
  melting point: 122 to 124 °C

## CC(C)c1cccc(C(C)C)c1NC(=O)CCCCCSc1nc2c(N(C)C)cccc2o1 [Example 28, 6-(4-N,N-dimethylaminobenzoxazol-2-ylthio)-N-(2,6-diisopropylphenyl)hexanamide]
ACAT in J774 cells
  IC50: 0.47 µM
  IC50 (HepG2)/IC50 (J774): 0.9
ACAT in HepG2 cells
  IC50: 0.42 µM
other
  melting point: 129 to 130 °C

## CC(C)c1cccc(C(C)C)c1NC(=O)CCCCCSc1nc2cccc(CO)c2o1 [Example 48, 6-[7-hydroxymethylbenzoxazol-2-ylthio]-N-(2,6-diisopropylphenyl)hexanamide]
other
  melting point: 91 to 92 °C

## CCOC(=O)c1cccc2nc(SCCCCCC(=O)Nc3c(C(C)C)cccc3C(C)C)oc12 [Example 79, 6-(7-ethoxycarbonylbenzoxazol-2-ylthio)-N-(2,6-diisopropylphenyl)hexanamide]
other
  melting point: 114 to 116 °C

## CC(C)c1cccc(C(C)C)c1NC(=O)C(C)(C)CCCOc1ccc2c(c1)C=C(c1nccn1C)C(CCc1ccc(F)cc1)O2 (centres unmarked) [Control 1, 5-[2-(2-(4-fluorophenyl)ethyl)-3-(1-methyl-1H-imidazol-2-yl)-2H-1-benzopyran-6-yl]oxy-2,2-dimethyl-N-(2,6-diisopropylphenyl)pentanamide, reference compound]
ACAT in J774 cells
  IC50: 0.56 µM
  IC50 (HepG2)/IC50 (J774): 9.5

## CC(C)c1cccc(C(C)C)c1NC(=O)CCCCCSc1nc2cccc(CN3CCOCC3)c2o1 [Example 51, 6-[7-(1-morpholino)methylbenzoxazol-2-ylthio]-N-(2,6-diisopropylphenyl)hexanamide]
other
  melting point: 117 to 118 °C

## CC(C)c1cccc(C(C)C)c1NC(=O)CCCCCSc1ncc[nH]1 [Example 68, 6-(imidazol-2-ylthio)-N-(2,6-diisopropylphenyl)hexanamide]
other
  melting point: 190 to 191 °C

## CC(C)c1cccc(C(C)C)c1NC(=O)CCCCCSc1nc2cccc(N(C)C)c2o1 [Example 50, 6-(7-N,N-dimethylaminobenzoxazol-2-ylthio)-N-(2,6-diisopropylphenyl)hexanamide]
other
  melting point: 129 to 130 °C

## CC(C)c1cccc(C(C)C)c1NC(=O)CCCCCSc1nc2cccnc2s1 [Example 21, 6-(thiazolo[5,4-b]pyridin-2-ylthio)-N-(2,6-diisopropylphenyl)hexanamide]
other
  melting point: 137 to 138 °C

## COC(=O)c1c(O)ccc2nc(SCCCCCC(=O)Nc3c(C(C)C)cccc3C(C)C)oc12 [Example 91, 6-[6-hydroxy-7-methoxycarbonylbenzoxazol-2-ylthio)-N-(2,6-diisopropylphenyl)hexanamide]
other
  melting point: 155 to 156 °C

## COC(=O)c1cccc2nc([S+]([O-])CCCCCCCNC(=O)Nc3c(C(C)C)cccc3C(C)C)oc12 (centres unmarked) [Example 56, N-(2,6-diisopropylphenyl)-N′-[7-(7-methoxycarbonylbenzoxazol-2-ylsulfinyl)heptyl]urea]
other
  melting point: 145 to 147 °C

## CC(C)c1cccc(C(C)C)c1NC(=O)CCCCCSc1nc2c(CN(C)C)cccc2o1 [Example 27, 6-[4-(N,N-dimethylaminomethyl)benzoxazol-2-ylthio]-N-(2,6-diisopropylphenyl)hexanamide]
ACAT in J774 cells
  IC50: 1.31 µM
other
  melting point: 113 to 115 °C

## CC(C)c1cccc(C(C)C)c1NC(=O)CCCCCSc1nc2ccc(CN(C)C)cc2o1 [Example 43, 6-[6-(N,N-dimethylaminomethyl)benzoxazol-2-ylthio]-N-(2,6-diisopropylphenyl)hexanamide]
other
  melting point: 82 to 84 °C

## COC(=O)c1cccc2nc(SCCCCCC(=O)Nc3c(OC)cc(OC)cc3OC)oc12 [Example 62, 6-(7-methoxycarbonylbenzoxazol-2-ylthio)-N-(2,4,6-trimethoxyphenyl)hexanamide]
other
  melting point: 136 to 138 °C

## CC(C)c1cccc(C(C)C)c1NC(=O)CCCCCSc1nc2cccc(-c3nnn[nH]3)c2o1 [Example 52, 6-[7-(tetrazol-5-yl)benzoxazol-2-ylthio)-N-(2,6-diisopropylphenyl)hexanamide]
other
  melting point: 218 to 220 °C

## CC(C)c1cccc(C(C)C)c1NC(=O)CCCCCSc1nc2cc(N(C)C)ccc2o1 [Example 38, 6-(5-N,N-dimethylaminobenzoxazol-2-ylthio)-N-(2,6-diisopropylphenyl)hexanamide]
ACAT in J774 cells
  IC50: 1.83 µM
other
  melting point: 130 to 132 °C
